Measured values: ChEMBL document CHEMBL1142343, “Design and structure-activity relationships of potent and selective inhibitors of undecaprenyl pyrophosphate synthase (UPPS): tetramic, tetronic acids and dihydropyridin-2-ones” (Bioorg Med Chem Lett, 2008)
Values after ≈ are worked out from the molar mass of the structure shown.

Key:
Staphylococcus aureus = experiment: Antibacterial activity against Staphylococcus aureus by microdilution broth method; format: functional
Isoprenyl transferase = target: T1, Isoprenyl transferase (Streptococcus pneumoniae serotype 4 (strain ATCC BAA-334 / TIGR4), UniProt Q97SR4); experiment: Inhibition of Streptococcus pneumoniae UPPS
T1 sequence (Q97SR4 whole entry): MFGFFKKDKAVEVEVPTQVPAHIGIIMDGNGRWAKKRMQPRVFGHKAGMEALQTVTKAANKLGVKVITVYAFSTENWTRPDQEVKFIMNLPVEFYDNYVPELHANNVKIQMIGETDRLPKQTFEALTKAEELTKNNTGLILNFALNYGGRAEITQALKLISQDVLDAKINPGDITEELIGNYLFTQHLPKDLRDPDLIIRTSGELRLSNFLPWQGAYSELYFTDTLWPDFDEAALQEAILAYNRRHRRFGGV

Enterococcus faecalis = experiment: Antibacterial activity against Enterococcus faecalis by microdilution broth method; format: functional
[1] = target: T2, Farnesyl pyrophosphate synthase (Homo sapiens, UniProt P14324); experiment: Inhibition of human FPPS
T2 sequence (P14324 whole entry): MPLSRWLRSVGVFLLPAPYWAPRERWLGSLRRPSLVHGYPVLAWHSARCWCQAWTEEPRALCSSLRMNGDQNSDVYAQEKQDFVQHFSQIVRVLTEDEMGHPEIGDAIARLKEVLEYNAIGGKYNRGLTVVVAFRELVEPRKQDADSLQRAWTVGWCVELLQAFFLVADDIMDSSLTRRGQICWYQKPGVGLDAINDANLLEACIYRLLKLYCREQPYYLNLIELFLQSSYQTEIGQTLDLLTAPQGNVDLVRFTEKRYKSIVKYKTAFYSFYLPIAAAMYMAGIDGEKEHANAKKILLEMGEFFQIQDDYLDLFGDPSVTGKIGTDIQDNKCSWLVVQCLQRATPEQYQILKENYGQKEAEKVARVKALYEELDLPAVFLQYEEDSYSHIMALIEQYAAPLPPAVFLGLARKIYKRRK

Streptococcus pneumoniae = experiment: Antibacterial activity against Streptococcus pneumoniae by microdilution broth method; format: functional
[2] = Dissociation constant, pKa of the compound; format: physicochemical

SMILES	MIC (Staphylococcus aureus) [µg/mL]	IC50 (Isoprenyl transferase) [µM]	MIC (Enterococcus faecalis) [µg/mL]	IC50 [1] [µM]	MIC (Streptococcus pneumoniae) [µg/mL]	pKa [2]
O=C(Nc1ccc(C2CCCCC2)cc1)C1=C(O)C(Cc2ccccc2)OC1=O (centres undefined)	64 (≈ 163 µM)	0.5	32 (≈ 81.7 µM)	> 50	1 (≈ 2.55 µM)	
O=C(Nc1ccc(S(=O)(=O)c2ccccc2)cc1)C1=C(O)CC(Cc2ccccc2)NC1=O (centres undefined)	32 (≈ 69.2 µM)	8.5	16 (≈ 34.6 µM)		16 (≈ 34.6 µM)	6.5
O=C(Nc1ccc(Cl)cc1)C1=C(O)C(c2ccccc2)OC1=O (centres undefined)	> 64	24	> 64	> 50	64 (≈ 194 µM)	
O=C(Nc1ccc(Nc2ccccc2)cc1)C1=C(O)CC(Cc2ccccc2)NC1=O (centres undefined)		1.1				6.5
O=C(Nc1ccc(N2CCCCC2)cc1)C1=C(O)C(CCc2ccccc2)NC1=O (centres undefined)	4 (≈ 9.86 µM)	0.8	8 (≈ 19.7 µM)	> 50	4 (≈ 9.86 µM)	3
O=C1NCC(CC2CCCCC2)C(O)=C1C(=O)Nc1ccc(-n2ccnc2)cc1 (centres undefined)	16 (≈ 40.6 µM)	2.1	4 (≈ 10.1 µM)		16 (≈ 40.6 µM)	
COCC1NC(=O)C(C(=O)Nc2ccc(C3CCCCC3)cc2)=C1O (centres undefined)		> 50				3
O=C(Nc1ccc(F)cc1)C1=C(O)C(CCc2ccccc2)NC1=O (centres undefined)	16 (≈ 47 µM)	2.5	64 (≈ 188 µM)		16 (≈ 47 µM)	3
O=C1NCC(Cc2ccccc2)C(O)=C1C(=O)Nc1ccc(-n2ccnc2)cc1 (centres undefined)	64 (≈ 165 µM)	8.8	4 (≈ 10.3 µM)		32 (≈ 82.4 µM)	
O=C(Nc1ccc(-c2ccccc2)cc1)C1=C(O)C(Cc2ccccc2)OC1=O (centres undefined)	> 128	1.1	32 (≈ 83 µM)		4 (≈ 10.4 µM)	
CC(C)CC1NC(=O)C(C(=O)Nc2ccc(C3CCCCC3)cc2)=C1O (centres undefined)	0.5 (≈ 1.4 µM)	1.3	2 (≈ 5.61 µM)	> 50	1 (≈ 2.81 µM)	3
O=C1NCC(O)=C1C(=O)Nc1ccc(C2CCCCC2)cc1		58				3
O=C(Nc1ccc(C2CCCCC2)cc1)C1=C(O)C(c2ccccc2)NC1=O (centres undefined)	2 (≈ 5.31 µM)	3.5	4 (≈ 10.6 µM)	> 100	2 (≈ 5.31 µM)	3
O=C(Nc1ccc(-n2ccnc2)cc1)C1=C(O)CC(Cc2ccccc2)NC1=O (centres undefined)	32 (≈ 82.4 µM)	0.63	32 (≈ 82.4 µM)		32 (≈ 82.4 µM)	6.5
CCCCCCOc1ccc(NC(=O)C2=C(O)C(Cc3ccccc3)NC2=O)cc1 (centres undefined)		19				3
O=C(NC1CCCCC1)C1=C(O)C(CCc2ccccc2)NC1=O (centres undefined)	32 (≈ 97.4 µM)	35	32 (≈ 97.4 µM)		64 (≈ 195 µM)	3
O=C(Nc1ccc(C2CCCCC2)cc1)C1=C(O)C(Cc2ccccc2)NC1=O (centres undefined)	0.5 (≈ 1.28 µM)	1.8	8 (≈ 20.5 µM)	> 100	1 (≈ 2.56 µM)	3
O=C(Nc1cc(Cl)cc(Cl)c1)C1=C(O)C(c2ccccc2)OC1=O (centres undefined)	32 (≈ 87.9 µM)	2	32 (≈ 87.9 µM)	> 50	4 (≈ 11 µM)	
O=C(Nc1ccc(C2CCCCC2)cc1)C1=C(O)C(Cc2ncc[nH]2)NC1=O (centres undefined)	16 (≈ 42.1 µM)	4.2	16 (≈ 42.1 µM)		8 (≈ 21 µM)	3

Stronger by IC50 (Isoprenyl transferase), values ahead:

MIC (Staphylococcus aureus) [µg/mL]	IC50 (Isoprenyl transferase) [µM]	MIC (Enterococcus faecalis) [µg/mL]	IC50 [1] [µM]	MIC (Streptococcus pneumoniae) [µg/mL]	pKa [2]	SMILES
16 (≈ 38.6 µM)	0.11	64 (≈ 154 µM)	> 50	32 (≈ 77.2 µM)	6.5	O=C(Nc1ccc(Oc2ccccc2)cc1)C1=C(O)CC(Cc2ccccc2)NC1=O (centres undefined)
4 (≈ 10 µM)	0.12	16 (≈ 40.2 µM)	> 100	2 (≈ 5.02 µM)	3	O=C(Nc1ccc(-c2ccccc2)cc1)C1=C(O)C(CCc2ccccc2)NC1=O (centres undefined)
0.5 (≈ 1.28 µM)	0.3	1 (≈ 2.56 µM)	8		3	O=C(Nc1ccc(C2CCCCC2)cc1)C1=C(O)CN(Cc2ccccc2)C1=O
4 (≈ 10.2 µM)	0.2	8 (≈ 20.5 µM)	> 50	4 (≈ 10.2 µM)	6.5	O=C(Nc1ccc(C2CCCCC2)cc1)C1=C(O)CC(c2ccccc2)NC1=O (centres undefined)
64 (≈ 195 µM)	0.07	64 (≈ 195 µM)	> 50	64 (≈ 195 µM)	6.5	O=C(NC1CCCCC1)C1=C(O)CC(Cc2ccccc2)NC1=O (centres undefined)
4 (≈ 10.2 µM)	0.18	64 (≈ 164 µM)	> 50	4 (≈ 10.2 µM)	6.5	O=C(Nc1ccc(C2CCCCC2)cc1)C1=C(O)C[C@H](c2ccccc2)NC1=O
4 (≈ 10.2 µM)	0.07	64 (≈ 164 µM)	> 100	4 (≈ 10.2 µM)	6.5	O=C(Nc1ccc(C2CCCCC2)cc1)C1=C(O)C[C@@H](c2ccccc2)NC1=O
4 (≈ 9.89 µM)	0.16	4 (≈ 9.89 µM)	> 100	1 (≈ 2.47 µM)	3	O=C(Nc1ccc(C2CCCCC2)cc1)C1=C(O)C(CCc2ccccc2)NC1=O (centres undefined)
32 (≈ 79.1 µM)	0.04	64 (≈ 158 µM)	> 50	8 (≈ 19.8 µM)	6.5	O=C(Nc1ccc(C2CCCCC2)cc1)C1=C(O)CC(Cc2ccccc2)NC1=O (centres undefined)
16 (≈ 40.9 µM)	0.14	16 (≈ 40.9 µM)	> 50	8 (≈ 20.4 µM)	6.5	O=C(Nc1ccc(C(F)(F)F)nc1)C1=C(O)CC(Cc2ccccc2)NC1=O (centres undefined)
64 (≈ 158 µM)	0.11	64 (≈ 158 µM)	> 50	64 (≈ 158 µM)	6.5	O=C(Nc1ccc(N2CCCCC2)cc1)C1=C(O)CC(Cc2ccccc2)NC1=O (centres undefined)
> 64	0.2	64 (≈ 173 µM)		4 (≈ 10.8 µM)	6.5	CC(C)CC1CC(O)=C(C(=O)Nc2ccc(C3CCCCC3)cc2)C(=O)N1 (centres undefined)
> 32	0.06	32 (≈ 80.7 µM)		> 32	6.5	O=C(Nc1ccc(C2CCCCC2)cc1)C1=C(O)CC(C2CCCCC2)NC1=O (centres undefined)
